# Assays:
# Format in all cases: in vivo, mouse
# [1] = tested on: male C57BL/6 mice administered with Escherichia coli; experiment: Y-maze task, Escherichia coli-induced model; conditions: spontaneous alternation; E. coli model mice; donepezil 5 mg/kg
# Procedure: In order to evaluate spatial cognitive ability, a Y-maze task was performed. In a Y-shaped maze that has a length of 40 cm, a width of 4 cm, and a height of 12 cm and is closed on all sides, three paths were designated as A, B, and C. Then, a mouse was placed in the center and observed for 8 minutes, and the total number of entries entered was recorded. If the mouse entered three different branches in turn, the alternation number was counted as 1. […] The alternation number is defined as entering all three in turn, and the calculation for evaluation of spatial cognitive function was performed using the following equation.
# Spontaneous alternation (%)=(total number of alternation/(total number of entries-2))×100
# [2] = tested on: male C57BL/6 mice administered with Escherichia coli; experiment: Novel object recognition test (NORT), Escherichia coli-induced model; conditions: recognition index; E. coli model mice; donepezil 5 mg/kg
# Procedure: The mouse was moved to the behavior observation room and acclimatized for 5 minutes. Thereafter, in a 3-minute exposure trial, two identical objects (1 set) were placed in a box 30 cm apart, and the time the mouse recognized the objects for 3 minutes was measured. […] The recognition index (%) is converted into the preference for new objects (time to recognize novel objects/total recognition time)×100.
# [3] = tested on: male C57BL/6 mice administered with Escherichia coli; experiment: Elevated plus maze (EPM) test, Escherichia coli-induced model; conditions: E. coli model mice; once a day for 5 days; NK112 samples 1×10^9 CFU, fluoxetine 1 mg/kg
# Procedure: 5-week-old male C57BL/6 mice having a body weight of 19 to 21 g were divided into a normal group and an experimental group, with 6 mice per group, and acclimatized to the laboratory for 1 week, and then the experiment was performed. The experimental group was administered with Escherichia coli (1×10^9 CFU/mouse/day) orally once a day for 5 days, and the normal group was administered with physiological saline. […]
# The elevated plus maze is an experimental apparatus to measure the level of anxiety, depression, or stress, etc. […] The movements of the mouse placed in the elevated plus maze were recorded in a room with a brightness of 20 lux and a video camera installed above.
# Specifically, a C57BL/6 mouse was placed facing the open arm with its head in the exact center of the elevated plus maze, and the time and number of times it spent in the open arms and the enclosed arms for 5 minutes were measured. […]
# Of the total experimental time, time spent in open arms (OT) was calculated as [time spent in open arms/(time spent in open arms+time spent in enclosed arms)]×100. Open arm entry (OE) was calculated as [open arm entry/(open arm entry+enclosed arm entry)]×100. […]
# [4] = tested on: male C57BL/6 mice administered with Escherichia coli; experiment: Forced swimming test (FST), Escherichia coli-induced model; conditions: E. coli model mice; once a day for 5 days; NK112 samples 1×10^9 CFU, fluoxetine 1 mg/kg
# Procedure: (§1) 5-week-old male C57BL/6 mice having a body weight of 19 to 21 g were divided into a normal group and an experimental group, with 6 mice per group, and acclimatized to the laboratory for 1 week, and then the experiment was performed. The experimental group was administered with Escherichia coli (1×10^9 CFU/mouse/day) orally once a day for 5 days, and the normal group was administered with physiological saline.
# (§2) Thereafter, 1×10^9 CFU heat-treated lactic acid bacteria (heat-killed NK112), 1×10^9 CFU lactic acid bacteria lysate supernatant (NK112 cytoplasmic component), 1×10^9 CFU lactic acid bacteria lysate precipitate (NK112 cell wall component), or positive control group drug (fluoxetine 1 mg/kg) was administered once a day for 5 days, respectively.
# In the case of heat-treated lactic acid bacteria (heat-killed NK112), the precipitate obtained by centrifuging the lactic acid bacteria culture solution in MRS medium was suspended to 1×10^10 CFU/ml, and then heat-treated twice at 70° C. for 10 minutes each to prepare them. […]
# A water tank with a height of 40 cm and a diameter of 20 cm was filled with water at a temperature of 25±1° C. to a height of 30 cm. […] The first 2 minutes were not measured as adaptation time, and the immobility time of the experimental animals was measured for the next 4 minutes. […]
# [5] = tested on: male C57BL/6 mice administered with Escherichia coli; experiment: Tail suspension test (TST), Escherichia coli-induced model; conditions: E. coli model mice; once a day for 5 days; NK112 samples 1×10^9 CFU, fluoxetine 1 mg/kg
# Procedure: as §1
# as §2, with “respectively. […]” for “respectively.”
# According to the method of Steru et al. (Steru L, Chermat R, Thierry B, Simon P (1985) The tail suspension test: A new method for screening antidepressants in mice, Psychopharmacology, Vol. 85; pp. 367-370), A fixation apparatus was attached to the end of the mouse's tail about 1 cm, and then it was hung 50 cm away from the ground in a container with a diameter of 35 cm and a height of 50 cm. The immobility time of the experimental animals was measured for a total of 6 minutes.
# corticosterone in blood = experiment: Corticosterone in blood, Escherichia coli-induced model; conditions: E. coli model mice; once a day for 5 days; NK112 samples 1×10^9 CFU, fluoxetine 1 mg/kg
# Procedure: as §1, §2
# In addition, the concentration of corticosterone in blood, which induces anxiety, in each mouse was also measured and shown in Table 2 below.
Structure (SMILES),Y-maze task (%) [1],NORT test (%) [2],"EPM test (%, time spent in open arm) [3]","FST test (%, immobility time) [4]","TST test (%, immbolity time) [5]",Corticosterone in blood (corticosterone in blood)
"COc1cc2c(cc1OC)C(=O)C(CC1CCN(Cc3ccccc3)CC1)C2 (stereo not drawn) [Donepezil, donepezil]",63.2%,62.2%,–,–,–,–
"CNCCC(Oc1ccc(C(F)(F)F)cc1)c1ccccc1 (stereo not drawn) [Fluoxetine, fluoxetine]",–,–,9.8%,32.1%,33.5%,202.5 ng/mL
